Laboratory results reported in patent US20250302043A1, “BIOCIDE FORMULATIONS FOR THE PRESERVATION OF ANALYTE DETECTION SENSOR(S) AND METHOD(S) OF USE AND THEREOF” (Siemens Healthcare Diagnostics Inc., priority 2019, published 2025).

Assays:
[1] = tested on: bacteria (including S. aureus, E. coli, P. aeruginosa, and C. maltaromaticum) and fungi (including, C. albicans, A. niger, and Penicillium sp.); assay: Biocide efficacy: concentrations (CFU per milliliter) of contaminants over time on plates treated with biocide; format: cell-based; conditions: for decrease or elimination of the bacteria and/or fungi contaminants: plates
From the text: FIG. 3 is a graphical plot showing the concentrations (measured in CFU per milliliter) of various contaminants (y-axis), such as, by way of example only, bacteria and fungi, over a period of time in weeks (x-axis) on plates treated with a concentration of about 20 ppm hexahydro 1,3,5-tris(2-hydroxy ethyl)-S-triazine (“Onyxide200”) biocide in accordance with the presently disclosed and/or claimed inventive concept(s).
FIG. 4A is a graphical plot showing the concentrations (measured in CFU per milliliter) of various contaminants (y-axis), such as, by way of example only, bacteria and fungi, over a period of time in weeks (x-axis) on plates treated with a concentration of about 5 ppm of 5-chloro-2-methylisothiazol-3(2H)-one (“Cl-MlT”) biocide in accordance with the presently disclosed and/or claimed inventive concept(s).
FIG. 5A is a graphical plot showing the concentrations (measured in CFU per milliliter) of various contaminants (y-axis), such as, by way of example only, bacteria and fungi, over a period of time in weeks (x-axis) on plates treated with a combination of concentrations of about 20 ppm of Onyxide200 biocide and about 4 ppm of Cl-MlT biocide in accordance with the presently disclosed and/or claimed inventive concept(s).
Referring now to FIG. 3, shown therein is a graphical plot showing the concentrations (measured in CFU per milliliter) of various contaminants (y-axis), such as, by way of example only, bacteria (including S. aureus, E. coli, P. aeruginosa, and C. maltaromaticum) and fungi (including, C. albicans, A. niger, and Penicillium sp.) over a period of five weeks (x-axis) on plates treated with a concentration of about 20 ppm of the individual aqueous biocide Onyxide200 in accordance with the presently disclosed and/or claimed inventive concept(s). […]
Referring now to FIG. 5A, shown therein is a graphical plot showing the concentrations (measured in CFU per milliliter) of various contaminants (y-axis), such as, by way of example only, bacteria (including S. aureus, E. coli, P. aeruginosa, and C. maltaromaticum) and fungi (including, C. albicans, A. niger, and Penicillium sp.) over a period of six weeks (x-axis) on plates treated with a combined aqueous biocide formulation comprising concentrations of about 20 ppm of Onyxide200 biocide and about 4 ppm of Cl-MlT biocide in accordance with the presently disclosed and/or claimed inventive concept(s). […] This is synergistic effect allows for a significant increase in the formulation's efficacy for contaminant removal over the individual component biocides (Onyxide200 and Cl-MlT) which comprise the formulation.

[2] = tested on: creatinase enzyme of creatinine detection sensors; assay: Inactivation of the enzyme of creatinine detection sensors after exposure to biocide; format: biochemical; conditions: individual biocide; creatinine detection sensor; 'in as little as'
From the text: Biocides are often used to preserve the at least one analyte detection sensor(s) of a sensor array present in a blood gas, electrolyte, and/or metabolite instrument. However, when such analyte detection sensor(s) is a creatinine detection sensor(s), these biocides inactivate some or all of the enzymes present on and/or in the creatinine sensor(s). In the context of creatinine sensors, such sensors rely on enzymes containing free sulfhydryl groups (—SH) for the proper and continuous functioning of the sensors. Such free sulfhydryl groups chemically react with certain species of biocide(s) (such as, Cl-MlT) that result in the inactivation of the creatinine sensor's(s′) enzymes, thereby resulting in decreased (or total loss) of functional utility and/or functional life of the creatinine sensor(s). Such inactivation can occur very rapidly. […]
Referring now to FIG. 4A, shown therein is a graphical plot showing the concentrations (measured in CFU per milliliter) of various contaminants (y-axis), such as, by way of example only, bacteria (including S. aureus, E. coli, P. aeruginosa, and C. maltaromaticum) and fungi (including, C. albicans, A. niger, and Penicillium sp.) over a period of six weeks (x-axis) on plates treated with a concentration of about 5 ppm of the individual aqueous biocide Cl-MlT in accordance with the presently disclosed and/or claimed inventive concept(s).

| SMILES | week of plating at which decrease and/or elimination was obtained for some contaminants ([1]; about 1 ppm individual aqueous biocide, FIG. 4B) | decrease or elimination of the bacteria and/or fungi contaminants ([1]; about 1 ppm individual aqueous biocide, six weeks, FIG. 4B) | week after plating at which decrease and/or elimination was obtained for some contaminants ([1]; about 5 ppm individual aqueous biocide, FIG. 4A) | decrease or elimination of the bacteria and/or fungi contaminants ([1]; about 5 ppm individual aqueous biocide, six weeks, FIG. 4A) | time after exposure at which inactivation of the enzyme occurs [2] | decrease or elimination of the bacteria and/or fungi contaminants ([1]; about 20 ppm individual aqueous biocide, five weeks, FIG. 3) |
| --- | --- | --- | --- | --- | --- | --- |
| Cn1sc(Cl)cc1=O [Cl-MlT, 5-chloro-2-methylisothiazol-3(2H)-one] | > 6 week | eventually resulted in a decrease or elimination of only some of the bacteria and/or fungi contaminants | 5 week | eventually resulted in a decrease or elimination of the bacteria and/or fungi contaminants | 1 to 4 days |  |
| OCCN1CN(CCO)CN(CCO)C1 [Onyxide200, hexahydro 1,3,5-tris(2-hydroxyethyl)-S-triazine] |  |  |  |  |  | did not result in a substantial decrease or elimination of the bacteria and/or fungi contaminants |
